Where two headings read alike, the source gives them in different places. Positions of bridges follow the written chain, without caps; N, C: chain ends. Non-standard residues stand in square brackets, D forms with d. Residues, ends and D or L forms follow the SMILES beside them. 2Nal = N[C@@H](Cc1ccc2ccccc2c1)C(=O)O
Key:
Test in all cases: cell-based
hNav1.5 = hNav1.5 (Homo sapiens, UniProt Q14524)
hNav1.7 = hNav1.7 (Homo sapiens, UniProt Q15858); type: cell-based; conditions: IonWorks Quattro, read-out: IWQ Use Nav1.7
hNav1.3 = hNav1.3 (Homo sapiens, UniProt Q9NY46); conditions: IonWorks Quattro, read-out: IWQ Use Nav1.3
[1] = IonWorks Quattro, Use, read-out: IWQ Use Nav1.5
[2] = IonWorks Quattro, use-dependent, […], read-out: IWQ Use Nav1.5

hNav1.7, sequence (Q15858 whole entry, looked up): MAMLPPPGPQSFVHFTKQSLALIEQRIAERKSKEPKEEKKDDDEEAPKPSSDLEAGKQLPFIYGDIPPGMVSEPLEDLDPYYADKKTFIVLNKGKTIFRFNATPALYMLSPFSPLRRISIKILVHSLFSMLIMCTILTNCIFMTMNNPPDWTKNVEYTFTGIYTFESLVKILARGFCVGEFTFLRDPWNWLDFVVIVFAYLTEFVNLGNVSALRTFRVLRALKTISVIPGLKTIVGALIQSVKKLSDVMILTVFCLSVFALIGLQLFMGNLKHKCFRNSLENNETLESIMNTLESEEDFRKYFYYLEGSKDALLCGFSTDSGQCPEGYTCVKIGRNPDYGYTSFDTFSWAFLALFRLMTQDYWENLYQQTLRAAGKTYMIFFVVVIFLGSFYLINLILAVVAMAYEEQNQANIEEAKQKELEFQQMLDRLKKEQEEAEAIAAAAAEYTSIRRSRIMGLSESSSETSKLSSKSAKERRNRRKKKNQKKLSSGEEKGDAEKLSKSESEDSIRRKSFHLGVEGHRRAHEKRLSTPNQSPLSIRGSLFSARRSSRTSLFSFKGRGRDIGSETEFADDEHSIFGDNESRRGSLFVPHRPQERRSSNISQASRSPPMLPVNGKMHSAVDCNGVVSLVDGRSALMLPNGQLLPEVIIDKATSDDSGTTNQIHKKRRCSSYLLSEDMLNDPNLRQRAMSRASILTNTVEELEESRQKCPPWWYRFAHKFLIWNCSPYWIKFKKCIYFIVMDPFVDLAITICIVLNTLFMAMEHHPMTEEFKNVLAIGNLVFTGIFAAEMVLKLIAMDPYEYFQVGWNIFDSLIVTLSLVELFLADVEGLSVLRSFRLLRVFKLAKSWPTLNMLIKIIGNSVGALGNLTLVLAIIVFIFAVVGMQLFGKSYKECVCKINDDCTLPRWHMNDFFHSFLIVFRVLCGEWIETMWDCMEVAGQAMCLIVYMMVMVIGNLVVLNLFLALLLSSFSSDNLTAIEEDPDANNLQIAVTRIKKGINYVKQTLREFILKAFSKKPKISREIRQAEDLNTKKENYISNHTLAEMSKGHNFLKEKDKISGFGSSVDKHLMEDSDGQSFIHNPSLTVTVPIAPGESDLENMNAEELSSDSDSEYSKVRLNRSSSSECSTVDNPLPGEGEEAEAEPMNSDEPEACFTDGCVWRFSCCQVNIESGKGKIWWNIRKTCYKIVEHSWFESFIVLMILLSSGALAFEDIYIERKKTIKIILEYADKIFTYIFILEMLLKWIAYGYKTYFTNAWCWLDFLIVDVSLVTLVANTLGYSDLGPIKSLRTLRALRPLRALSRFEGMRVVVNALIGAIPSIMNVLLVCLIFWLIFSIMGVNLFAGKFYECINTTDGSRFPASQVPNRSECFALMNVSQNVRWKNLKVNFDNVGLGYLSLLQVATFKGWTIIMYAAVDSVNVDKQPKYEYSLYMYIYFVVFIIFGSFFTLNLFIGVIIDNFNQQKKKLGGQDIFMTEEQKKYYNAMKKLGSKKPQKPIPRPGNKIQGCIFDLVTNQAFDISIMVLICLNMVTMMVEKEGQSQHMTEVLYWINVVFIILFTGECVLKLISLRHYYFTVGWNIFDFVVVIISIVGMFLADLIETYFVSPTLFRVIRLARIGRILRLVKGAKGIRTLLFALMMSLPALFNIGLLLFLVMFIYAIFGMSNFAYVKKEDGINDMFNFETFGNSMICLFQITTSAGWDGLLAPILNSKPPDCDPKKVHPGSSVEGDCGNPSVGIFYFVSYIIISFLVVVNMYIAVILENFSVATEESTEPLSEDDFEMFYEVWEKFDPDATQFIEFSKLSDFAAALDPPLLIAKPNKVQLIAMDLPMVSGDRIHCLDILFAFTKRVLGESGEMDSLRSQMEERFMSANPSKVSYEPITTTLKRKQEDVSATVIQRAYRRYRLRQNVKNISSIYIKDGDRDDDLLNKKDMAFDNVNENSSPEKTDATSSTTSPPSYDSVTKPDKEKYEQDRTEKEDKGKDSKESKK
hNav1.5, sequence (Q14524 whole entry, looked up): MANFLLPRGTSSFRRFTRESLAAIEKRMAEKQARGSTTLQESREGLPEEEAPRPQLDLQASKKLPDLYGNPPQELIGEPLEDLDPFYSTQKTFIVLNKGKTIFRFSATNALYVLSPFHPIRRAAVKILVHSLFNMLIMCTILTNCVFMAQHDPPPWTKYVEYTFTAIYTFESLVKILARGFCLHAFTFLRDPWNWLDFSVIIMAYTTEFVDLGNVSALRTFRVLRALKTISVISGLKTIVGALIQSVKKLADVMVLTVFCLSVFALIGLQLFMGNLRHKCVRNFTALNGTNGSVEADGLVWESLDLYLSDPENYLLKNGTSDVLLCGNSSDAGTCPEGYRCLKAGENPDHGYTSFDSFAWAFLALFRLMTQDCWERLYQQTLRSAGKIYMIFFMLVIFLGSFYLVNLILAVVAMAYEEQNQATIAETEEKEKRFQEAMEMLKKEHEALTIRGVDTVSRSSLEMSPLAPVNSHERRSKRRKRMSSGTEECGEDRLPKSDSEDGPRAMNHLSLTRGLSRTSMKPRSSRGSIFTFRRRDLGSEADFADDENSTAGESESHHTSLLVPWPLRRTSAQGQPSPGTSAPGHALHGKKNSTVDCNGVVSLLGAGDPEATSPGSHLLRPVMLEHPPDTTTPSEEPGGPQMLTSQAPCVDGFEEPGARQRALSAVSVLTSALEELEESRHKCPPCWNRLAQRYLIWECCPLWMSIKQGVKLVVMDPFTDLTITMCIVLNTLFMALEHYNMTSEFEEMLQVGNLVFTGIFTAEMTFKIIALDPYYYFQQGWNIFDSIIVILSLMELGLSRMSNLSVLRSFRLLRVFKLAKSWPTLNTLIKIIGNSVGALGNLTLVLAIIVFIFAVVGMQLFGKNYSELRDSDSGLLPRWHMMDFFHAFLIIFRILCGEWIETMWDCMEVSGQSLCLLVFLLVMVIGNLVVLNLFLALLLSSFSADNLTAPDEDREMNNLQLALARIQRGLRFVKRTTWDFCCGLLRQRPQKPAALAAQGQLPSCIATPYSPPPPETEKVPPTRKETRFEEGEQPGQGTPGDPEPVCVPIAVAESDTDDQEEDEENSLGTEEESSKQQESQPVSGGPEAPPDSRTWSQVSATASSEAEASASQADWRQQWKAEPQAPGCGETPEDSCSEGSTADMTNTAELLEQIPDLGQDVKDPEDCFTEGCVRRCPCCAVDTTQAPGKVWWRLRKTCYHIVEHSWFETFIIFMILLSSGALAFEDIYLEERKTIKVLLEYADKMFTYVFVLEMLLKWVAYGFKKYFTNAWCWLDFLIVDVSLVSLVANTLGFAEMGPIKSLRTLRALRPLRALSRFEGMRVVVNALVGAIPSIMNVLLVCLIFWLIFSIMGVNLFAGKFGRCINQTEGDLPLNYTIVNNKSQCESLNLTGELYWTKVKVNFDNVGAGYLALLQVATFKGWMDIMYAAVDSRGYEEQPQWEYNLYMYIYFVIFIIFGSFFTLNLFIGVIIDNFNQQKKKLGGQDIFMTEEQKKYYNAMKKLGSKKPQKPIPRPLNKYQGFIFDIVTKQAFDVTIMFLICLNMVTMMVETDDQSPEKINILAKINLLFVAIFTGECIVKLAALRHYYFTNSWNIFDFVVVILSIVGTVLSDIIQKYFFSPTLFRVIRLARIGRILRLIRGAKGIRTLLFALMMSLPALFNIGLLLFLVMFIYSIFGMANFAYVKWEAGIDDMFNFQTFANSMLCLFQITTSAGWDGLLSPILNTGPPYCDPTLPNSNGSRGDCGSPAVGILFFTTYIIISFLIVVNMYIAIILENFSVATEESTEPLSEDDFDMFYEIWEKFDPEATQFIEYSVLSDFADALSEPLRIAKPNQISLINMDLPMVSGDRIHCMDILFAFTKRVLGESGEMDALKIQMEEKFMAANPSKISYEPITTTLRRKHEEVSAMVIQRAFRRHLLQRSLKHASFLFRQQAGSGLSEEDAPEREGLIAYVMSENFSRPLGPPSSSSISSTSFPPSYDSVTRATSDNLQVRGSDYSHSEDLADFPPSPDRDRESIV

In the case of CC[C@H](C)[C@@H]1NC(=O)[C@@H]2CSSC[C@@H]3NC(=O)[C@H](C(C)C)NC(=O)[C@H](CC(C)C)NC(=O)[C@H](CC(N)=O)NC(=O)[C@@H]4CCCN4C(=O)[C@H](CCCNC(=N)N)NC(=O)[C@H](CSSC[C@H](NC(=O)[C@@H](N)CC(=O)O)C(=O)N[C@@H](CC(C)C)C(=O)NCC(=O)N[C@@H](Cc4ccccc4)C(=O)N[C@@H](CCSC)C(=O)N[C@@H](CCCNC(=N)N)C(=O)N[C@@H](CCCCN)C(=O)N2)NC(=O)[C@H](CSSC[C@@H](C(=O)N[C@@H](CCCCN)C(=O)N[C@@H](Cc2ccc(O)cc2)C(=O)N[C@H](C(=O)N[C@@H](Cc2ccccc2)C(N)=O)C(C)C)NC(=O)[C@H](CC(C)C)NC(=O)[C@H](CCCCN)NC(=O)[C@H](Cc2c[nH]cn2)NC(=O)[C@H]([C@@H](C)O)NC(=O)[C@H](CCCNC(=N)N)NC(=O)[C@H](CO)NC3=O)NC(=O)[C@H](CCCCN)NC(=O)[C@H](CC(=O)O)NC(=O)[C@H](CC(N)=O)NC(=O)[C@H](CC(=O)O)NC(=O)[C@@H]2CCCN2C1=O [compound 114] (H-DCLGFMRKCIPDNDKCCRPNLVCSRTHKLCKYVF-NH2; disulfide 2-17, 9-23, 16-30), the IC50 (hNav1.5; Table 24, IonWorks Quattro, use, […], read-out: IWQ Use Nav1.5) is reported as 7.27 µM, the IC50 (hNav1.7; Table 24, use, […]) is reported as 6.99 µM and the IC50 (hNav1.3; Table 24, use, […]) is reported as 9.8 µM.

Compound CC[C@H](C)[C@@H]1NC(=O)[C@@H]2CSSC[C@@H]3NC(=O)[C@H](C(C)C)NC(=O)[C@H](CC(C)C)NC(=O)[C@H](CC(N)=O)NC(=O)[C@@H]4CCCN4C(=O)[C@H](CCCNC(N)=O)NC(=O)[C@H](CSSC[C@H](NC(=O)[C@@H](N)CC(=O)O)C(=O)N[C@@H](CC(C)C)C(=O)NCC(=O)N[C@@H](Cc4ccccc4)C(=O)N[C@@H](CCSC)C(=O)N[C@@H](CCCNC(=N)N)C(=O)N[C@@H](CCCCN)C(=O)N2)NC(=O)[C@H](CSSC[C@@H](C(=O)N[C@@H](CCCCN)C(=O)N[C@@H](Cc2ccc(O)cc2)C(=O)N[C@H](C(=O)N[C@@H](Cc2ccccc2)C(N)=O)C(C)C)NC(=O)[C@H](Cc2c[nH]c4ccccc24)NC(=O)[C@H](CCCCN)NC(=O)[C@H](Cc2cnc[nH]2)NC(=O)[C@H]([C@@H](C)O)NC(=O)[C@H](CCCNC(=N)N)NC(=O)[C@H](CO)NC3=O)NC(=O)[C@H](CCCCN)NC(=O)[C@H](CC(=O)O)NC(=O)[C@H](CC(N)=O)NC(=O)[C@H](CC(=O)O)NC(=O)[C@@H]2CCCN2C1=O [compound 116] has an IC50 (hNav1.5; IWQ Use Nav1.5 (μM)) of 11 µM, an IC50 (hNav1.7; Use) of 0.17 µM and an IC50 (hNav1.3; Use) of 0.23 µM.

Compound CC[C@H](C)[C@@H]1NC(=O)[C@@H]2CSSC[C@@H]3NC(=O)[C@H](C(C)C)NC(=O)[C@H](CC(C)C)NC(=O)[C@H](CC(N)=O)NC(=O)[C@@H]4CCCN4C(=O)[C@H](CCCNC(=N)N)NC(=O)[C@H](CSSC[C@H](NC(=O)[C@@H](N)CC(=O)O)C(=O)N[C@@H](CC(C)C)C(=O)NCC(=O)N[C@@H](Cc4ccccc4)C(=O)N[C@@H](CCSC)C(=O)N[C@@H](CCCNC(=N)N)C(=O)N[C@@H](CCCCN)C(=O)N2)NC(=O)[C@H](CSSC[C@@H](C(=O)N[C@@H](CCCCN)C(=O)N[C@@H](Cc2ccc(O)cc2)C(=O)N[C@H](C(=O)N[C@@H](Cc2ccccc2)C(N)=O)C(C)C)NC(=O)[C@H](Cc2c[nH]c4ccccc24)NC(=O)[C@H](CCCCN)NC(=O)[C@H](Cc2c[nH]cn2)NC(=O)[C@H]([C@@H](C)O)NC(=O)[C@H](CCCNC(N)=O)NC(=O)[C@H](CO)NC3=O)NC(=O)[C@H](CCCCN)NC(=O)[C@H](CC(=O)O)NC(=O)[C@H](CC(N)=O)NC(=O)[C@H](CC(=O)O)NC(=O)[C@@H]2CCCN2C1=O [compound 117] has an IC50 (hNav1.5; [1]) of 8.87 µM, an IC50 (hNav1.7; Use) of 0.32 µM and an IC50 (hNav1.3; Use) of 0.51 µM.

Compound CC[C@H](C)[C@@H]1NC(=O)[C@@H]2CSSC[C@@H]3NC(=O)[C@H](C(C)C)NC(=O)[C@H](CCSC)NC(=O)[C@H](CC(N)=O)NC(=O)[C@@H]4CCCN4C(=O)[C@H](CCCNC(=N)N)NC(=O)[C@H](CSSC[C@H](NC(=O)[C@@H](N)CC(=O)O)C(=O)N[C@@H](CC(C)C)C(=O)NCC(=O)N[C@@H](Cc4ccccc4)C(=O)N[C@@H](CCSC)C(=O)N[C@@H](CCCNC(=N)N)C(=O)N[C@@H](CCCCN)C(=O)N2)NC(=O)[C@H](CSSC[C@@H](C(=O)N[C@@H](CCCCN)C(=O)N[C@@H](Cc2ccc(O)cc2)C(=O)N[C@H](C(=O)N[C@@H](Cc2ccccc2)C(N)=O)C(C)C)NC(=O)[C@H](Cc2c[nH]c4ccccc24)NC(=O)[C@H](CCCCN)NC(=O)[C@H](Cc2c[nH]cn2)NC(=O)[C@H]([C@@H](C)O)NC(=O)[C@H](CCCNC(=N)N)NC(=O)[C@H](CO)NC3=O)NC(=O)[C@H](CCCCN)NC(=O)[C@H](CC(=O)O)NC(=O)[C@H](CC(N)=O)NC(=O)[C@H](CC(=O)O)NC(=O)[C@@H]2CCCN2C1=O [compound 120] (H-DCLGFMRKCIPDNDKCCRPNMVCSRTHKWCKYVF-NH2; disulfide 2-17, 9-23, 16-30) has an IC50 (hNav1.5; [1]) of 9.54 µM, an IC50 (hNav1.7; Use) of 0.14 µM and an IC50 (hNav1.3; Use) of 0.09 µM.

Work on CC[C@H](C)[C@@H]1NC(=O)[C@@H]2CSSC[C@@H]3NC(=O)[C@H](C(C)C)NC(=O)[C@H](CC(C)C)NC(=O)[C@H](CC(N)=O)NC(=O)[C@@H]4CCCN4C(=O)[C@H](CCCNC(=N)N)NC(=O)[C@H](CSSC[C@H](NC(=O)[C@@H](N)CC(=O)O)C(=O)N[C@@H](CC(C)C)C(=O)NCC(=O)N[C@@H](Cc4ccccc4)C(=O)N[C@@H](CCSC)C(=O)N[C@@H](CCCNC(=N)N)C(=O)N[C@@H](CCCCN)C(=O)N2)NC(=O)[C@H](CSSC[C@@H](C(=O)N[C@@H](CCCCN)C(=O)N[C@@H](Cc2ccc(O)cc2)C(=O)N[C@H](C(=O)N[C@@H](CC(C)C)C(N)=O)C(C)C)NC(=O)[C@H](Cc2c[nH]c4ccccc24)NC(=O)[C@H](CCCCN)NC(=O)[C@H](Cc2c[nH]cn2)NC(=O)[C@H]([C@@H](C)O)NC(=O)[C@H](CCCNC(=N)N)NC(=O)[C@H](CO)NC3=O)NC(=O)[C@H](CCCCN)NC(=O)[C@H](CC(=O)O)NC(=O)[C@H](CC(N)=O)NC(=O)[C@H](CC(=O)O)NC(=O)[C@@H]2CCCN2C1=O [compound 122] (H-DCLGFMRKCIPDNDKCCRPNLVCSRTHKWCKYVL-NH2; disulfide 2-17, 9-23, 16-30) yielded an IC50 (hNav1.5; [2]) of 8.46 µM, an IC50 (hNav1.7; use-dependent, […]) of 0.24 µM and an IC50 (hNav1.3; use-dependent, […]) of 0.13 µM.

In the case of CC[C@H](C)[C@@H]1NC(=O)[C@@H]2CSSC[C@@H]3NC(=O)[C@H](C(C)C)NC(=O)[C@H](CC(C)C)NC(=O)[C@H](CC(N)=O)NC(=O)CNC(=O)[C@H](CCCNC(=N)N)NC(=O)[C@H](CSSC[C@H](NC(=O)[C@@H](N)CC(=O)O)C(=O)N[C@@H](CC(C)C)C(=O)NCC(=O)N[C@@H](Cc4ccccc4)C(=O)N[C@@H](CCSC)C(=O)N[C@@H](CCCNC(=N)N)C(=O)N[C@@H](CCCCN)C(=O)N2)NC(=O)[C@H](CSSC[C@@H](C(=O)N[C@@H](CCCCN)C(=O)N[C@@H](Cc2ccc(O)cc2)C(=O)N[C@H](C(=O)N[C@@H](Cc2ccccc2)C(N)=O)C(C)C)NC(=O)[C@H](Cc2c[nH]c4ccccc24)NC(=O)[C@H](CCCCN)NC(=O)[C@H](Cc2c[nH]cn2)NC(=O)[C@H]([C@@H](C)O)NC(=O)[C@H](CCCNC(=N)N)NC(=O)[C@H](CO)NC3=O)NC(=O)[C@H](CCCCN)NC(=O)[C@H](CC(=O)O)NC(=O)[C@H](CC(N)=O)NC(=O)[C@H](CC(=O)O)NC(=O)[C@@H]2CCCN2C1=O [compound 126] (H-DCLGFMRKCIPDNDKCCRGNLVCSRTHKWCKYVF-NH2; disulfide 2-17, 9-23, 16-30), the IC50 (hNav1.5; [1]) is reported as 11.9 µM, the IC50 (hNav1.7; Use) is reported as 0.1 µM and the IC50 (hNav1.3; Use) is reported as 0.11 µM.

For CC[C@H](C)[C@@H]1NC(=O)[C@@H]2CSSC[C@@H]3NC(=O)[C@H](C(C)C)NC(=O)[C@H](CC(C)C)NC(=O)[C@H](CC(N)=O)NC(=O)[C@@H]4CCCN4C(=O)[C@H](CCCNC(=N)N)NC(=O)[C@H](CSSC[C@H](NC(=O)[C@@H](N)CC(=O)O)C(=O)N[C@@H](CC(C)C)C(=O)NCC(=O)N[C@@H](Cc4ccccc4)C(=O)N[C@@H](CCSC)C(=O)N[C@@H](CCCNC(=N)N)C(=O)N[C@@H](CCCCN)C(=O)N2)NC(=O)[C@H](CSSC[C@@H](C(=O)N[C@@H](CCCCN)C(=O)N[C@@H](CCCCN)C(=O)N[C@H](C(=O)N[C@@H](Cc2ccccc2)C(=O)N[C@@H](Cc2c[nH]c4ccccc24)C(N)=O)C(C)C)NC(=O)[C@H](Cc2c[nH]c4ccccc24)NC(=O)[C@H](CCCCN)NC(=O)[C@H](Cc2c[nH]cn2)NC(=O)[C@H]([C@@H](C)O)NC(=O)[C@H](CCCNC(=N)N)NC(=O)[C@H](CO)NC3=O)NC(=O)[C@H](CCCCN)NC(=O)[C@H](CC(=O)O)NC(=O)[C@H](CC(N)=O)NC(=O)[C@H](CC(=O)O)NC(=O)[C@@H]2CCCN2C1=O [compound 127] (H-DCLGFMRKCIPDNDKCCRPNLVCSRTHKWCKKVFW-NH2; disulfide 2-17, 9-23, 16-30), the IC50 (hNav1.5; IonWorks Quattro, use-dependent block, hNav1.5, read-out: IWQ Use Nav1.5) was 18.9 µM, the IC50 (hNav1.7; use-dependent block, hNav1.7) was 0.73 µM and the IC50 (hNav1.3; use-dependent block, hNav1.3) was 0.7 µM.

CC[C@H](C)[C@@H]1NC(=O)[C@@H]2CSSC[C@@H]3NC(=O)[C@H](C(C)C)NC(=O)[C@H](CC(C)C)NC(=O)[C@H](CC(N)=O)NC(=O)[C@@H]4CCCN4C(=O)[C@H](CCCNC(=N)N)NC(=O)[C@H](CSSC[C@H](NC(=O)[C@@H](N)CC(=O)O)C(=O)N[C@@H](CC(C)C)C(=O)NCC(=O)N[C@@H](Cc4ccccc4)C(=O)N[C@@H](CCSC)C(=O)N[C@@H](CCCNC(=N)N)C(=O)N[C@@H](CCCCN)C(=O)N2)NC(=O)[C@H](CSSC[C@@H](C(=O)N[C@@H](CCCCN)C(=O)N[C@@H](Cc2ccc(O)cc2)C(=O)N[C@H](C(=O)N[C@@H](Cc2ccc4ccccc4c2)C(N)=O)C(C)C)NC(=O)[C@H](Cc2c[nH]c4ccccc24)NC(=O)[C@H](CCCCN)NC(=O)[C@H](Cc2c[nH]cn2)NC(=O)[C@H]([C@@H](C)O)NC(=O)[C@H](CCCNC(=N)N)NC(=O)[C@H](CO)NC3=O)NC(=O)[C@H](CCCCN)NC(=O)[C@H](CC(=O)O)NC(=O)[C@H](CC(N)=O)NC(=O)[C@H](CC(=O)O)NC(=O)[C@@H]2CCCN2C1=O [compound 130] (H-DCLGFMRKCIPDNDKCCRPNLVCSRTHKWCKYV[2Nal]-NH2; disulfide 2-17, 9-23, 16-30) gave an IC50 (hNav1.5; [2]) of 3.59 µM, an IC50 (hNav1.7; use-dependent, […]) of 0.04 µM and an IC50 (hNav1.3; use-dependent, […]) of 0.02 µM.

Source: patent US9340590B2 (priority 2011, dated 2016)
